In patent US20220202770A1, “COMPOSITION FOR TREATING HEPATITIS B, AND METHOD FOR EVALUATING REPLICATION ACTIVITY OF HEPATITIS B VIRUS” (priority 2016, published 2022):

Tests used:
[1] = tested on: genomic DNA (G3PDH exon 8) of HeLa cells; test: Amount of genomic DNA (G3PDH exon 8) in HeLa cells by real time PCR; assay type: cell-based, human (HeLa cells); details: Example 3, FIG. 6B, serially diluted
Description: (§1) To HeLa cells, an evaluation vector for HBV replication activity, and expression vectors of HBV-P, HVc and HBx were introduced in the ratio described in the evaluation method for HBV replication activity described in Example 2. Thereafter, the HeLa cells were cultured in a 96-well plate containing a culture solution supplemented with a 0.25% n-butanol extract of a filamentous fungus culture, under 5% CO2 atmosphere at 37° C. Twenty-four hours later, WST-8 (Nacalai) was added to the culture solution, which was further subjected to culture for 2 hours. The absorbance of the culture solution was measured at 450 nm/650 nm to evaluate the survival rates of the cells.
(§2) After the culture solution was removed, DNA in the cell cytoplasm was recovered by a treatment with 50 μl of Buffer A (10 mM HEPES, 1.5 mM MgCl2, 10 mM KCl, 0.5 mM DTT, 0.05% NP40, pH7.9) and subjected to real time PCR performed in accordance with the method of Example 1. As the result of primary screening of 800 extracts (200 strains, 4 culture solutions), 162 extracts inhibiting 25% or more of HBV DNA replication (reverse transcription) and having a cytotoxic activity of 80% or less were selected as a primary hit.
(§3) Subsequently, 162 extracts primarily hit were serially diluted and added to an evaluation system. […]

[2] = tested on: mitochondrial DNA (ND5) of HeLa cells; test: Amount of mitochondrial DNA (ND5) in HeLa cells by real time PCR; assay type: cell-based, human (HeLa cells); details: Example 3, FIG. 6C, serially diluted
Description: as §1, §2, §3

[3] = tested on: Entecavir-resistance mutant HBV-Pol (HBV-Pol-ETVr, L180M/T184G/S202I/M204I); test: Evaluation method for HBV replication activity with Entecavir-resistance mutant HBV-Pol; assay type: cell-based, hepatitis B virus; HeLa cells; details: Example 9, FIG. 12B (e, f); HeLa cells, 0.020-5.000 μM, 24 hours
Text: (§4) As described in the section of “background art”, long-term administration of conventional anti-HBV drugs made of a nucleotide/nucleoside analog such as Entecavir and Lamivudine causes the emergence of drug-resistant HBV. As a cause of the emergence of such a drug-resistant HBV, a mutation within the region of reverse transcription enzyme (RT) of HBV-Pol has been reported.
(§5) Then, mutant HBV-Pol expression vectors having M204I mutation, and L180M/T184G/S202I/M204I mutations respectively introduced therein were prepared in accordance with a conventional method and designated as HBV-P-LAMr, and HBV-P-ETVr, respectively. As the MAPKK inhibitor, Hypothemycin was used. As a negative control against a drug-resistant HBV, an existing anti-HBV drug, Entecavir, was used.
(§6) HBV replication evaluation was carried out in the same manner as in the evaluation method for HBV replication activity described in Example 1. The evaluation vector for HBV replication activity, and expression vectors of a wild type HBV-P or mutant HBV-P (HBV-P-LAMr or HBV-P-ETVr), HBc and HBx were introduced in the same ratio as in Example 2; at the same time, Hypothemycin or Entecavir was introduced in amounts of 0.000 μM, 0.020 μM, 0.039 μM, 0.078 μM, 0.156 μM, 0.313 μM, 0.625 μM, 1.250 μM, 2.500 μM or 5.000 μM. Culture was carried out under a 5% CO2 atmosphere at 37° C. […]

[4] = tested on: HBV DNA replication (reverse transcription of reporter pgRNA by wild type HBV-Pol); test: Evaluation method for HBV replication activity: reporter-minus strand DNA quantified by real time PCR in transfected HeLa cells; assay type: cell-based, hepatitis B virus (genotype C); HeLa cells; details: 24 hours; for suppression of reverse transcription by wild-type HBV-Pol: Example 9, FIG. 12B (a, b), 0.020-5.000 μM
Description: To HeLa cells, the evaluation vector for HBV replication activity, HBV-P expression vector, HBc expression vector and HBx expression vector were introduced in various combinations (Introduction step). Combination patterns are as described in FIG. 4A. Transfection of the HeLa cells was carried out by electroporation. DNA (10 μg) was introduced into about 1×10^6 HeLa cells in the conditions of 125 V/2.5 ms plus length by an electroporator, Nepa 21 (Nepa Gene Co., Ltd.). The ratio of HBc expression vector:HBV-P expression vector:HBx expression vector was set to be 9:3:1. If there was an expression vector not to be introduced depending on the combination, the same ratio of an empty vector (pCI) as that of the expression vector not to be introduced was introduced. The ratio of the evaluation vector for HBV replication activity and the total of other expression vectors was set to be 1: 1 (5 μg: 5 μg). If there was an expression vector not to be introduced, pCI was introduced at the ratio corresponding to that of the expression vector.
After transfection, the HeLa cells were cultured in DMEM supplemented with 2 mL of 10% FBS in the presence of 5% CO2 at 37° C. for 48 hours (Culturing step).
After culture, DNA was extracted from the HeLa cells by means of DNeasy Mini (Qiagen). As the primer, a primer pair of a forward primer consisting of the nucleotide sequence represented by SEQ ID NO: 38 and a reverse primer consisting of the nucleotide sequence represented by SEQ ID NO: 39, was used. The forward primer has the two nucleotides at the 3′ terminal, which match the two nucleotides at the 5′ terminal of the exon present on the downstream side; however, fail to match two nucleotides at the 5′ terminal of the intron. Accordingly, the forward primer functions as a primer only in the case where reporter-minus strand DNA having a reporter sequence from which the intron was removed is present, and amplification can be made by using the reporter-minus strand DNA as a template to provide a DNA fragment of 131 nucleotides.
In accordance with the evaluation method for HBV replication activity described in Example 1, an evaluation vector for HBV replication activity, HBV-P expression vector, HBc expression vector and HBx expression vector were introduced in HeLa cells. […]
To HeLa cells, an evaluation vector for HBV replication activity, and expression vectors of HBV-P, HVc and HBx were introduced in the ratio described in the evaluation method for HBV replication activity described in Example 2. […] The absorbance of the culture solution was measured at 450 nm/650 nm to evaluate the survival rates of the cells. […]

[5] = tested on: Lamivudine-resistance mutant HBV-Pol (HBV-Pol-LAMr, M204I); test: Evaluation method for HBV replication activity with Lamivudine-resistance mutant HBV-Pol; assay type: cell-based, hepatitis B virus; HeLa cells; details: Example 9, FIG. 12B (c, d); HeLa cells, 0.020-5.000 μM, 24 hours
Text: as §4, §5, §6

[6] = target: HBV/C-Pol (hepatitis B virus polymerase, Genotype C), wild type (hepatitis B virus, Genotype C) (UniProt Q9YZR5); test: cell-based or functional assay

Compound | amount of genomic DNA (G3PDH exon 8) [1] | amount of mitochondrial DNA (ND5) [2] | suppression of reverse transcription activity of Entecavir-resistance mutant HBV-Pol [3] | replication of HBV DNA ([4]; Example 3, FIG. 6A, serially diluted) | suppression of reverse transcription by wild-type HBV-Pol [4] | suppression of reverse transcription activity of Lamivudine-resistance mutant HBV-Pol [5] | amount of the reporter-minus strand DNA (replication of HBV DNA) ([4]; Example 2, FIG. 5, 0.04-5.00 μM/well) | HBV replication (reporter-minus strand DNA by real time PCR) in HeLa cells under forced expression of MEK1 [6] [fold]
Hypothemycin | not affected | not affected | all in a concentration-dependent manner | inhibited replication of HBV DNA in a concentration-dependent manner | all in a concentration-dependent manner | all in a concentration-dependent manner |  | 
C=C1[C@H](CO)[C@@H](O)C[C@@H]1n1cnc2c(=O)[nH]c(N)nc21 [Entecavir] |  |  | not substantially suppressed |  | suppressed reverse transcription by a wild-type HBV-Pol in a concentration-dependent manner | weak | decreased in an Entecavir-concentration depending manner | 
constitutively active human MEK1 (S218E/S222E) (from UniProt Q02750 1-393) (enzyme) |  |  |  |  |  |  |  | 10
